Broadly, the pIC50 is the IC50 on a negative log10 scale, so that one unit is a factor of ten.

The values that follow come from patent US20260159512A1, “BCAT2 INHIBITORS” (AGIOS PHARMACEUTICALS, INC., priority 2021, published 2026).

Each structure is given as a SMILES string. pIC50: −log10 of the molar value. Where only a bound is given, the exact number is not on record here.

The target in experiment [1] is T1, BCAT2 (Homo sapiens, UniProt O15382).
T1 sequence (O15382 28-392): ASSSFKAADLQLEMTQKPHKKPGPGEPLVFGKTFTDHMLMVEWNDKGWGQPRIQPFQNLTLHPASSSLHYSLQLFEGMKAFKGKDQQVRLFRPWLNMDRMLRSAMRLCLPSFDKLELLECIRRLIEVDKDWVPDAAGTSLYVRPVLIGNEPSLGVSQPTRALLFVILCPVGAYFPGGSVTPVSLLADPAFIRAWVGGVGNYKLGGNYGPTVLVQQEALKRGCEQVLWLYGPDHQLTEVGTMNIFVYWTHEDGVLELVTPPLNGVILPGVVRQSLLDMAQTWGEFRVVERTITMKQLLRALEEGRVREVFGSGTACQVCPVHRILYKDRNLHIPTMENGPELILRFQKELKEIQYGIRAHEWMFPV
The experiment can be described thus: BCAT2 in vitro cell inhibition using engineered A549 cells (KMV cell assay, 13C6-KMV by LC-MS/MS). In kind it is cell-based. Set-up: The result was an engineered A549 cell line that expressed endogenous BCAT2; endogenous in cells; host or cells: A549 cells with MUT and BCAT1 knocked out by CRISPR/CAS9; key to BCAT2 Cell Inhibition: A: less than or equal to 0.100 μM; B: greater than 0.100 and less than or equal to 0.500 μM; C: greater than 0.500 and less than or equal to 1.000 μM; d: greater than 1.000 μM; E: no fit. Particulars: average where tested multiple times.

In experiment [2] the target is T1, BCAT2. The experiment can be described thus: BCAT2 in vitro enzyme inhibition assay (resazurin/diaphorase-coupled fluorescence). In kind it is biochemical. Particulars: average where tested multiple times. An outline of the steps:
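Coupled fluorescence readout: glutamate formed from L-leucine/α-ketoglutarate transamination drives GDH/NAD/diaphorase reduction of resazurin (Ex 540/Em 590). Human BCAT2 was first exposed 1 h at room temperature to compound, top final 100 μM in 3-fold, 10-point series; substrate reaction ran 1 h before SDS quench, in technical duplicate with DMSO max and enzyme-free min controls.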
A general note: The colour change of resazurin is a common sign of viable cells or microbes.

With `O=C(N[C@@H]1C[C@@H](O)C[C@H](n2c(-c3ccccc3F)nc3cnccc32)C1)c1ncc(Cl)s1` [Example 271, 5-chloro-N-((1S,3R,5R)-3-(2-(2-fluorophenyl)-1H-imidazo[4,5-c]pyridin-1-yl)-5-hydroxycyclohexyl)thiazole-2-carboxamide], on BCAT2 [1], the “BCAT2 Cell Inhibition” value was “E”. The pIC50 against BCAT2 [2] is less than 6.00.
For `O=C(N[C@H]1CCC[C@@H](n2c(Oc3cc[nH]n3)nc3cnc(-c4nc[nH]n4)cc32)C1)c1ncc(Cl)s1` [Example 191, N-((1S,3R)-3-(2-((1H-pyrazol-3-yl)oxy)-6-(1H-1,2,4-triazol-3-yl)-1H-imidazo[4,5-c]pyridin-1-yl)cyclohexyl)-5-chlorothiazole-2-carboxamide], in that order: “E” and less than 6.00.
As to `CNC(=O)c1cc2nc(CC(C)C)n([C@H]3CCC[C@@H](NC(=O)c4ncc(Cl)s4)[C@@H]3O)c2cn1` [Example 279, 5-chloro-N-((1R,2S,3S)-2-hydroxy-3-(2-isobutyl-6-(methylcarbamoyl)-3H-imidazo[4,5-c]pyridin-3-yl)cyclohexyl)thiazole-2-carboxamide], the “BCAT2 Cell Inhibition” value at BCAT2 [1] is “E”. In addition, the pIC50 at BCAT2 [2] was less than 6.00.
As for `CC(C)C(O)c1nc2cnc(-c3nc[nH]n3)cc2n1[C@@H]1CCC[C@H](NC(=O)c2ncc(Cl)s2)C1` (single isomer, unassigned) [Example 182], the pIC50 against BCAT2 [1] is 6.00 to 6.30; against BCAT2 [2] it was no less than 7.00.
`CC(C)Cc1nc2cnc(-c3ccccc3CO)cc2n1[C@@H]1CCC[C@H](NC(=O)c2ncc(Cl)s2)C1` [Example 205, 5-chloro-N-((1S,3R)-3-(6-(2-(hydroxymethyl)phenyl)-2-isobutyl-1H-imidazo[4,5-c]pyridin-1-yl)cyclohexyl)thiazole-2-carboxamide]: the “BCAT2 Cell Inhibition” value on BCAT2 [1] is “E”. This compound had a pIC50 against BCAT2 [2] of less than 6.00.
In the case of `CC(C)Cc1nc2cnc(-n3nccn3)cc2n1[C@H]1C[C@H](O)C[C@@H](NC(=O)c2ccc(Cl)s2)C1` (single isomer, unassigned) [Example 396], the figures for the pIC50 against BCAT2 [1] and against BCAT2 [2] were less than 6.00 and no less than 7.00, respectively.
With `CC(C)Cc1nc2cnc(-c3ccn(C(F)F)n3)cc2n1[C@H]1CCC[C@@H](NC(=O)c2ncc(Cl)s2)[C@@H]1O` [Example 229, 5-chloro-N-((1R,2S,3S)-3-(6-(1-(difluoromethyl)-1H-pyrazol-3-yl)-2-isobutyl-1H-imidazo[4,5-c]pyridin-1-yl)-2-hydroxycyclohexyl)thiazole-2-carboxamide], the “BCAT2 Cell Inhibition” value on BCAT2 [1] was “E”. The compound further gave a pIC50 at BCAT2 [2] of 6.00 to 6.30.
Take `CO[C@@H]1C[C@@H](NC(=O)c2ncc(Cl)s2)C[C@@H](n2c(CC(C)C)nc3cnc(-n4cncn4)cc32)C1` [Example 418, 5-chloro-N-((1S,3R,5R)-3-(2-isobutyl-6-(1H-1,2,4-triazol-1-yl)-1H-imidazo[4,5-c]pyridin-1-yl)-5-methoxycyclohexyl)thiazole-2-carboxamide]: the “BCAT2 Cell Inhibition” value on BCAT2 [1] is reported as “E”. The compound further showed a pIC50 against BCAT2 [2] of less than 6.00.
On to `O=C(N[C@@H]1CCC[C@H](n2c(-c3ccccc3F)nc3cnc(-c4ncco4)cc32)[C@H]1O)c1ncc(Cl)s1` [Example 249, 5-chloro-N-((1R,2S,3S)-3-(2-(2-fluorophenyl)-6-(oxazol-2-yl)-1H-imidazo[4,5-c]pyridin-1-yl)-2-hydroxycyclohexyl)thiazole-2-carboxamide], for which the pIC50 at BCAT2 [1] was 6.00 to 6.30; against BCAT2 [2], 6.30 to 7.00.
Consider `CC(C)Cc1nc2cnc(-c3cccc(C#N)n3)cc2n1[C@H]1CCC[C@@H](NC(=O)c2ncc(Cl)s2)[C@@H]1O` [Example 391, 5-chloro-N-((1R,2S,3S)-3-(6-(6-cyanopyridin-2-yl)-2-isobutyl-1H-imidazo[4,5-c]pyridin-1-yl)-2-hydroxycyclohexyl)thiazole-2-carboxamide], for which the “BCAT2 Cell Inhibition” value at BCAT2 [1] is “E”. This compound had a pIC50 on BCAT2 [2] of less than 6.00.
`CO[C@@H]1C[C@@H](NC(=O)c2ncc(Cl)s2)C[C@@H](n2c(-c3ccccc3C#N)nc3cnc(-c4nc[nH]n4)cc32)C1` (stereo in doubt) [Example 446, 5-chloro-N-((1S,3R,5R)-3-(2-(2-cyanophenyl)-6-(1H-1,2,4-triazol-3-yl)-1H-imidazo[4,5-c]pyridin-1-yl)-5-methoxycyclohexyl)thiazole-2-carboxamide]: the pIC50 on BCAT2 [1] and on BCAT2 [2] was no less than 7.00 in each case.
For `Cc1cnn(-c2cc3c(cn2)nc(CC(C)C)n3[C@H]2CCC[C@@H](NC(=O)c3ncc(Cl)s3)[C@@H]2O)n1` [Example 244, 5-chloro-N-((1R,2S,3S)-2-hydroxy-3-(2-isobutyl-6-(4-methyl-2H-1,2,3-triazol-2-yl)-1H-imidazo[4,5-c]pyridin-1-yl)cyclohexyl)thiazole-2-carboxamide], the “BCAT2 Cell Inhibition” value at BCAT2 [1] was “E”. The pIC50 on BCAT2 [2] was less than 6.00.
The like results for `CO[C@@H]1C[C@@H](NC(=O)c2ncc(Cl)s2)C[C@@H](n2c(CC(C)(C)C)nc3cnc(-c4ccccn4)cc32)C1` (single isomer, unassigned) [Example 441] were, in that order, “E” and less than 6.00.
For the compound `O=C(N[C@H]1CCC[C@@H](n2c(-c3ccccc3F)nc3ccc(-c4ncccn4)cc32)[C@@H]1O)c1ncc(Cl)s1` [Example 466, 5-chloro-N-((1S,2R,3R)-3-(2-(2-fluorophenyl)-6-(pyrimidin-2-yl)-1H-benzo[d]imidazol-1-yl)-2-hydroxycyclohexyl)thiazole-2-carboxamide], the pIC50 against BCAT2 [1] and against BCAT2 [2] was no less than 7.00 each time.
As to `O=C(N[C@@H]1CCC[C@H](n2c(-c3ccccc3F)nc3cnc(-c4ccccn4)cc32)[C@H]1O)c1ncc(Cl)s1` [Example 241, 5-chloro-N-((1R,2S,3S)-3-(2-(2-fluorophenyl)-6-(pyridin-2-yl)-1H-imidazo[4,5-c]pyridin-1-yl)-2-hydroxycyclohexyl)thiazole-2-carboxamide], the pIC50 against BCAT2 [1] and at BCAT2 [2] was 6.30 to 7.00 in each case.
For `CC(C)(C)Cc1nc2cnc(-c3ccccn3)cc2n1[C@H]1CCC[C@@H](NC(=O)c2ncc(Cl)s2)[C@@H]1O` [Example 390, 5-chloro-N-((1R,2S,3S)-2-hydroxy-3-(2-neopentyl-6-(pyridin-2-yl)-1H-imidazo[4,5-c]pyridin-1-yl)cyclohexyl)thiazole-2-carboxamide], the results for the pIC50 on BCAT2 [1] and against BCAT2 [2] were less than 6.00 and 6.30 to 7.00, respectively.
The like results for `O=C(N[C@@H]1CCC[C@H](n2c(-c3ccccc3F)nc3cnc(-c4ccn[nH]4)cc32)[C@H]1O)c1ncc(Cl)s1` [Example 239, 5-chloro-N-((1R,2S,3S)-3-(2-(2-fluorophenyl)-6-(1H-pyrazol-5-yl)-1H-imidazo[4,5-c]pyridin-1-yl)-2-hydroxycyclohexyl)thiazole-2-carboxamide] were, in that order, 6.00 to 6.30 and 6.30 to 7.00.
Turning to `Cc1cnn(-c2cc3c(cn2)nc(-c2ccccc2F)n3[C@H]2CCC[C@@H](NC(=O)c3ncc(Cl)s3)[C@@H]2O)n1` [Example 247, 5-chloro-N-((1R,2S,3S)-3-(2-(2-fluorophenyl)-6-(4-methyl-2H-1,2,3-triazol-2-yl)-1H-imidazo[4,5-c]pyridin-1-yl)-2-hydroxycyclohexyl)thiazole-2-carboxamide], the pIC50 against BCAT2 [1] and against BCAT2 [2] was 6.00 to 6.30 throughout.
Take `O=C(N[C@H]1CCC[C@@H](n2c(-c3ccccc3F)nc3cnc(-c4nncn4C(F)F)cc32)C1)c1ncc(Cl)s1` [Example 377, 5-chloro-N-((1S,3R)-3-(6-(4-(difluoromethyl)-4H-1,2,4-triazol-3-yl)-2-(2-fluorophenyl)-1H-imidazo[4,5-c]pyridin-1-yl)cyclohexyl)thiazole-2-carboxamide]: the pIC50 against BCAT2 [1] was less than 6.00; at BCAT2 [2], 6.00 to 6.30.
For the compound `CC(C)Cc1nc2cnc(-c3cc(C(F)(F)F)n[nH]3)cc2n1[C@H]1CCC[C@@H](NC(=O)c2ncc(Cl)s2)[C@@H]1O` [Example 217, 5-chloro-N-((1R,2S,3S)-2-hydroxy-3-(2-isobutyl-6-(3-(trifluoromethyl)-1H-pyrazol-5-yl)-1H-imidazo[4,5-c]pyridin-1-yl)cyclohexyl)thiazole-2-carboxamide], the “BCAT2 Cell Inhibition” value at BCAT2 [1] was “E”. In addition, the pIC50 at BCAT2 [2] is less than 6.00.
For `O=C(N[C@H]1CCC[C@@H](n2c(-c3ccccc3F)nc3cnc(C4CCCO4)cc32)C1)c1ncc(Cl)s1` (single isomer, unassigned) [Example 201], in that order: “E” and 6.00 to 6.30.
For `CC(C)Cc1nc2cnc(-c3ccccn3)cc2n1[C@H]1C[C@H](O)C[C@@H](NC(=O)c2ncc(Cl)s2)C1` (single isomer, unassigned) [Example 215], in that order: “E” and 6.00 to 6.30.
